The source made the active and inactive calls.
What was measured:
BJ [1] = test: cytotoxicity toward Ras-transformed BJeLR fibroblasts, dose response, cell-based, alamar blue fluorescence, cherrypicked samples (AID 2631); assay type: functional; conditions: Homo sapiens;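 also: confirmatory dose-response assay in RAS-dependent BJ fibroblasts engineered with TERT, LT and ST, with cytotoxicity read by fluorescence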
[2] = cytotoxicity toward DRD oncogenic fibroblasts, dose response, cell-based, non-viral oncogenic, luminescence (AID 1934); assay type: functional; conditions: Homo sapiens
BJ [3] = test: cytotoxicity toward BJ-TERT-LT-ST fibroblasts, dose response, cell-based, RAS-independent, luminescence (AID 1935); assay type: functional; conditions: Homo sapiens;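 also: BJ fibroblasts immortalized with TERT plus LT and ST oncogenes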
BJ [4] = test: cytotoxicity toward BJ-TERT fibroblasts, dose response, cell-based, RAS-independent, luminescence (AID 1933); assay type: functional; conditions: Homo sapiens
BJ [5] = test: cells; assay type: functional, cell-based; conditions: Homo sapiens
[6] = target: Heat shock protein HSP 90-alpha (Homo sapiens, UniProt P07900); assay type: functional, organism-based
Prothrombin = Prothrombin (Bos taurus, UniProt P00735); test: thrombin inhibition, dose response, biochemical, fluorescence polarization, uHTS hits (AID 602369); assay type: functional
[7] = target: T1, DNA repair protein RAD52 homolog (Homo sapiens, UniProt P43351); assay type: functional, biochemical
T1 sequence (P43351 whole entry): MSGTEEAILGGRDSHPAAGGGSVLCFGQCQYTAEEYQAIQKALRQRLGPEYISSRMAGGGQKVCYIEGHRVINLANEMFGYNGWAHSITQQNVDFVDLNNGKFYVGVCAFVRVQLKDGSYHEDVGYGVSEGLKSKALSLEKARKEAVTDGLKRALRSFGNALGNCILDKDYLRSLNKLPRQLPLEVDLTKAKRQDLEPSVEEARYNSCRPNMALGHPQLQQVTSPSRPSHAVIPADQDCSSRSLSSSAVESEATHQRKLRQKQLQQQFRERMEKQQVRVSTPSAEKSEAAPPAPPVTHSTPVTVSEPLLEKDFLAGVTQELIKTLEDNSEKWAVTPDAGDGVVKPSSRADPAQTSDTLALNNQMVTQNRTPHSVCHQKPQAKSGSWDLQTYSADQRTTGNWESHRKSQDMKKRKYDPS

Phospholipase A2 = Phospholipase A2 (Homo sapiens, UniProt P04054); assay type: functional;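 also: confirmatory dose-response counterscreen on phospholipase A2, testing hits that came from an ultra-high-throughput screen for ATG4B inhibitors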
[8] = HeLa cell cytotoxicity, dose response, cytotoxicity control for MgcRacGAP inhibitor project (AID 624300); assay type: functional
[9] = target: T2, Rac GTPase-activating protein 1 (Homo sapiens, UniProt Q9H0H5); test: MgcRacGAP GTPase-activating activity inhibitors, confirmation, biochemical, ADP Hunter fluorescence, primary and confirmatory (AID 624330); assay type: functional
T2 sequence (Q9H0H5 whole entry): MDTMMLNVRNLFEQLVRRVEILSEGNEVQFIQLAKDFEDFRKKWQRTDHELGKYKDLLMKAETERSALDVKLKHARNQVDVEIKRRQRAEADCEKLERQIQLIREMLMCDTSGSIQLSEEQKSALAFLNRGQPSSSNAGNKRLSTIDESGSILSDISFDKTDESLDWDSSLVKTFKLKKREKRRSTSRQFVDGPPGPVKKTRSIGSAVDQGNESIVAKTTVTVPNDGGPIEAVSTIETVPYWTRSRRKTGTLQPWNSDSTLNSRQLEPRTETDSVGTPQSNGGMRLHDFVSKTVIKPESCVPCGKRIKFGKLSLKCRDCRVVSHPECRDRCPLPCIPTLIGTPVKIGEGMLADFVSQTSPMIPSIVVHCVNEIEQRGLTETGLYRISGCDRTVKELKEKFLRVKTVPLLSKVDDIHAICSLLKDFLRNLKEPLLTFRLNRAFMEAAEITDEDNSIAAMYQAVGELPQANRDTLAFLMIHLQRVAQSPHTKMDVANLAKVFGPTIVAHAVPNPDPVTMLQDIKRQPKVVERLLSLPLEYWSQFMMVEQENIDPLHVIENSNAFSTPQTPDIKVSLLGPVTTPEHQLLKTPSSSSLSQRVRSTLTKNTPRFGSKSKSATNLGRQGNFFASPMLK

Cysteine protease ATG4B = Cysteine protease ATG4B (Homo sapiens, UniProt Q9Y4P1); assay type: functional;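 also: Fluorescence-based dose-response confirmation assay measuring inhibition of ATG4B activity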
[10] = target: 72 kDa type IV collagenase (Homo sapiens, UniProt P08253); test: Dose Response validation of uHTS RPN11 inhibitor hits using a MMP-2 Fluorescence assay.; assay type: functional
[11] = target: 26S proteasome non-ATPase regulatory subunit 14 (Homo sapiens, UniProt O00487); test: inhibition of proteasome subunit RPN11 – biochemical, fluorescence polarization, uHTS hits, confirmation (AID 602368); assay type: functional
Chain of 26S proteasome non-ATPase regulatory subunit 14 (O00487 whole entry): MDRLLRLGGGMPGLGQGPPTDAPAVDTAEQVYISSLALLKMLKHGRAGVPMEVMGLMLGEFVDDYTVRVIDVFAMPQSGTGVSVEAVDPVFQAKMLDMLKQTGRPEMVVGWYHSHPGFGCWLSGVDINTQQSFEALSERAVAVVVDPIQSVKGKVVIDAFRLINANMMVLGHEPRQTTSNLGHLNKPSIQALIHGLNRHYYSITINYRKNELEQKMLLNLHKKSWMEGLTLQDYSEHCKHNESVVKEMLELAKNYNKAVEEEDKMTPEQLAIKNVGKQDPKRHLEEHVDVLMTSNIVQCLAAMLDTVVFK

Chain of Phospholipase A2 (P04054 whole entry): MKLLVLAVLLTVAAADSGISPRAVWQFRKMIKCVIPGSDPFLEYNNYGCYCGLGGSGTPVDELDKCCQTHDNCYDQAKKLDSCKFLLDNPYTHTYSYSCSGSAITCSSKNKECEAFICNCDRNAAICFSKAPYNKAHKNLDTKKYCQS
Chain of Cysteine protease ATG4B (Q9Y4P1 whole entry): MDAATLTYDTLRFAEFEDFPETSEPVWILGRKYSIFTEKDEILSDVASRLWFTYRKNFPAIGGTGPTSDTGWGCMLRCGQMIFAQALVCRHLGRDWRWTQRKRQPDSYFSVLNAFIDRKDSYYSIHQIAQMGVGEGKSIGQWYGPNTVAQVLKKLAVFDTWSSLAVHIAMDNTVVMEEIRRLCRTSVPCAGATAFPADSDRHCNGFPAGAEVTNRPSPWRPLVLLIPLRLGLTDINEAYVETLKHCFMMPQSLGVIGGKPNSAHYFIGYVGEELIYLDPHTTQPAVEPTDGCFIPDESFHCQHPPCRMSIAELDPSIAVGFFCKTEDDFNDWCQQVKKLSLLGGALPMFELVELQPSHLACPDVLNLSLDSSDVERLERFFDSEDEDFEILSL
Chain of 72 kDa type IV collagenase (P08253 whole entry): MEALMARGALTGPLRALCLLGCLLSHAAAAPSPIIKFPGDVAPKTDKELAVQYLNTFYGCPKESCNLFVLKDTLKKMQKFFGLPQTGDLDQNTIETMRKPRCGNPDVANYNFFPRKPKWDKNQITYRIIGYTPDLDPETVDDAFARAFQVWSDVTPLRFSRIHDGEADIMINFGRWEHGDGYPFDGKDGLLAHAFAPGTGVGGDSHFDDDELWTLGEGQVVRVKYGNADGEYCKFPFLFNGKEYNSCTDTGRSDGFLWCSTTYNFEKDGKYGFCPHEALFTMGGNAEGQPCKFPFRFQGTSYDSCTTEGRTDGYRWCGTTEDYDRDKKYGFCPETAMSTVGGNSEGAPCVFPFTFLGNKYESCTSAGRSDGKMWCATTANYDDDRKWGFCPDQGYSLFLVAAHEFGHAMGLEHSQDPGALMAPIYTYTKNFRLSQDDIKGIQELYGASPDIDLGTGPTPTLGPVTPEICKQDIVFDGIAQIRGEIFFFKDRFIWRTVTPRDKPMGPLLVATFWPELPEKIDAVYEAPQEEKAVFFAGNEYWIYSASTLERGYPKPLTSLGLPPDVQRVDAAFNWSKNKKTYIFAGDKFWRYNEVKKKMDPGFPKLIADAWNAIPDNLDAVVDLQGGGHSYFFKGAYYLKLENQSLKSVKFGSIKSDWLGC

## O=C1SC(Cc2ccccc2)C(=O)N1c1ccccc1 (centres undefined)
BJ [1]
  EC50: > 66.7 µM (inactive)
[2]
  EC50: 20.8 µM (active)
BJ [3]
  EC50: > 150 µM (not active)
BJ [4]
  EC50: 5.85 µM (active)
BJ [5]
  EC50: > 150 µM (not active)

## CCCCCCCCCCCCCCCC(O)C[N+](C)(C)CCO (centres undefined)
[6]
  AC50: 5 µM (active)
Prothrombin
  IC50: 45.1 µM (active)
[7]
  AC50: < 30.4 µM (active)
Phospholipase A2
  IC50: 6.53 µM (active)
[8]
  CC50: 33.4 µM (active)
[9]
  IC50: 86 µM (active)
Cysteine protease ATG4B
  IC50: 7.58 µM (active)
[10]
  IC50: 81.8 µM (active)
[11]
  IC50: 22.1 µM (active)

## COc1cccc(/C=C2\SC(=S)N(CCCC(=O)Nc3cc(C)on3)C2=O)c1
BJ [1]
  EC50: > 133 µM (inactive)
[2]
  EC50: > 150 µM (not active)
BJ [3]
  EC50: > 150 µM (not active)
BJ [4]
  EC50: 3.22 µM (inconclusive)
BJ [5]
  EC50: > 150 µM (not active)
